Results reported in PubChem BioAssay (NCI).
“And” between values parts separate entries of the source, which are not always exact repeats. Equal values may be shown once.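 Growth conditions: 96-well plates. Treatment: test compound, 48 hours, 5 concentrations. Analysis: linear interpolation between bracketing concentrations; unreached endpoints set to highest concentration. GI50: concentration for 50% inhibition of growth. The concentration for full growth arrest is given as TGI.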

Legend:
Assay in all cases: NCI tumour cell line growth inhibition, 48 h
SF-295 CNS = tested on: SF-295 CNS
XF 498 CNS = tested on: XF 498 CNS
LOX IMVI melanoma = tested on: LOX IMVI melanoma
CAKI-1 renal = tested on: CAKI-1 renal
COLO 205 colon = tested on: COLO 205 colon
SNB-78 CNS = tested on: SNB-78 CNS
A498 renal = tested on: A498 renal
MALME-3M melanoma = tested on: MALME-3M melanoma
MOLT-4 leukemia = tested on: MOLT-4 leukemia
OVCAR-3 ovarian = tested on: OVCAR-3 ovarian
UO-31 renal = tested on: UO-31 renal
SW-620 colon = tested on: SW-620 colon
DLD-1 colon = tested on: DLD-1 colon
HOP-92 NSCLC = tested on: HOP-92 NSCLC
SK-OV-3 ovarian = tested on: SK-OV-3 ovarian
NCI-H460 lung = tested on: NCI-H460 lung
SN12C renal = tested on: SN12C renal
HT29 colon = tested on: HT29 colon
LXFL 529 NSCLC = tested on: LXFL 529 NSCLC
SK-MEL-2 melanoma = tested on: SK-MEL-2 melanoma
IGROV1 ovarian = tested on: IGROV1 ovarian
CCRF-CEM leukemia = tested on: CCRF-CEM leukemia
U251 CNS = tested on: U251 CNS
NCI-H226 lung = tested on: NCI-H226 lung
OVCAR-8 ovarian = tested on: OVCAR-8 ovarian
SK-MEL-28 melanoma = tested on: SK-MEL-28 melanoma
UACC-62 melanoma = tested on: UACC-62 melanoma
NCI-H23 lung = tested on: NCI-H23 lung
ACHN renal = tested on: ACHN renal
RPMI-8226 leukemia = tested on: RPMI-8226 leukemia
DMS 114 small cell lung = tested on: DMS 114 small cell lung
HOP-18 NSCLC = tested on: HOP-18 NSCLC
SF-539 CNS = tested on: SF-539 CNS
DMS 273 small cell lung = tested on: DMS 273 small cell lung
SK-MEL-5 melanoma = tested on: SK-MEL-5 melanoma
SNB-75 CNS = tested on: SNB-75 CNS
TK-10 renal = tested on: TK-10 renal
KM20L2 colon = tested on: KM20L2 colon
RXF-631 renal = tested on: RXF-631 renal
HCT-15 colon = tested on: HCT-15 colon
HL-60(TB) leukemia = tested on: HL-60(TB) leukemia
M19-MEL melanoma = tested on: M19-MEL melanoma
K-562 leukemia = tested on: K-562 leukemia
M14 melanoma = tested on: M14 melanoma
NCI-H522 lung = tested on: NCI-H522 lung
EKVX NSCLC = tested on: EKVX NSCLC
SNB-19 CNS = tested on: SNB-19 CNS
PC-3 prostate = tested on: PC-3 prostate
RXF 393 renal = tested on: RXF 393 renal
HCT-116 colon = tested on: HCT-116 colon
P388 leukemia = tested on: P388 leukemia
MDA-MB-231 breast = tested on: MDA-MB-231 breast
A549 NSCLC = tested on: A549 NSCLC
HS 578T breast = tested on: HS 578T breast
BT-549 breast = tested on: BT-549 breast
MDA-MB-435 = tested on: MDA-MB-435
MCF7 breast = tested on: MCF7 breast
NCI/ADR-RES ovarian = tested on: NCI/ADR-RES ovarian
T-47D breast = tested on: T-47D breast
OVCAR-5 ovarian = tested on: OVCAR-5 ovarian
786-0 renal = tested on: 786-0 renal
KM12 colon = tested on: KM12 colon
P388/ADR leukemia = tested on: P388/ADR leukemia
UACC-257 melanoma = tested on: UACC-257 melanoma
HCC-2998 colon = tested on: HCC-2998 colon
DU-145 prostate = tested on: DU-145 prostate
OVCAR-4 ovarian = tested on: OVCAR-4 ovarian

Compound `COc1cc2c(cc1OC)C(Cl)C(c1ccc(Cl)cc1)=C2Cl` (centres undefined) has a TGI (SF-295 CNS) of 30 µM, a TGI (XF 498 CNS) of 9.09 µM and a TGI (LOX IMVI melanoma) of 25.5 µM. The TGI (CAKI-1 renal) was 40.3 µM, the TGI (COLO 205 colon) was 32.2 µM and the TGI (SNB-78 CNS) was 58.5 µM. For the same compound, the TGI (A498 renal) was 46 µM, the TGI (MALME-3M melanoma) was 56.8 µM and the TGI (MOLT-4 leukemia) was 42.5 µM. It also gave a TGI (OVCAR-3 ovarian) of 30.1 µM, a TGI (UO-31 renal) of 32.6 µM and a TGI (SW-620 colon) of 52 µM. For the same compound, the TGI (DLD-1 colon) was 37.8 µM, the TGI (HOP-92 NSCLC) was 32.3 µM and the TGI (SK-OV-3 ovarian) was 57.5 µM. It also gave a TGI (NCI-H460 lung) of 29.8 µM, a TGI (SN12C renal) of 48.6 µM and a TGI (HT29 colon) of 28.6 µM. The TGI (LXFL 529 NSCLC) was 17.5 µM, the TGI (SK-MEL-2 melanoma) was 36.3 µM and the TGI (IGROV1 ovarian) was 48.3 µM. It also gave a TGI (CCRF-CEM leukemia) of 30.6 µM, a TGI (U251 CNS) of 26.6 µM and a TGI (NCI-H226 lung) of 50.6 µM. The TGI (OVCAR-8 ovarian) was 60.5 µM, the TGI (SK-MEL-28 melanoma) was 41.4 µM and the TGI (UACC-62 melanoma) was 40.4 µM. The TGI (NCI-H23 lung) was 41.1 µM, the TGI (ACHN renal) was 30.1 µM and the TGI (RPMI-8226 leukemia) was 45.6 µM. For the same compound, the TGI (DMS 114 small cell lung) was 28.6 µM, the TGI (HOP-18 NSCLC) was 31.7 µM and the TGI (SF-539 CNS) was 31.2 µM. The TGI (DMS 273 small cell lung) was 41.6 µM, the TGI (SK-MEL-5 melanoma) was 28.3 µM and the TGI (SNB-75 CNS) was 36.2 µM. The TGI (TK-10 renal) was 43.4 µM, the TGI (KM20L2 colon) was 39.5 µM and the TGI (RXF-631 renal) was 51.7 µM. The TGI (HCT-15 colon) was 41.4 µM, the TGI (HL-60(TB) leukemia) was 41 µM and the TGI (M19-MEL melanoma) was 41.3 µM. It also gave a TGI (K-562 leukemia) of 32.9 µM, a TGI (M14 melanoma) of 33.6 µM and a TGI (NCI-H522 lung) of 32.5 µM. For the same compound, the TGI (EKVX NSCLC) was 59.7 µM and the TGI (SNB-19 CNS) was > 100 µM.
With `CC[C@@H](C)[C@H]([C@H](CC(=O)N1CCC[C@@H]1[C@@H](OC)[C@H](C)C(=O)N[C@H](Cc1ccccc1)c1nccs1)OC)N(C)C(=O)[C@H](NC(=O)[C@@H](C(C)C)N(C)C)C(C)C` the GI50 (PC-3 prostate) was 7.77 pM, the TGI (PC-3 prostate) was > 65.8 µM and the GI50 (RXF 393 renal) was 0.0179 µM. The GI50 (LOX IMVI melanoma) was 0.000425 µM, the GI50 (CAKI-1 renal) was 0.000245 µM and 0.000425 µM and the TGI (COLO 205 colon) was 0.000302 µM. For the same compound, the TGI (HCT-116 colon) was 0.00467 µM, the GI50 (MALME-3M melanoma) was 0.000425 µM and the TGI (MOLT-4 leukemia) was > 28.4 µM. For the same compound, the TGI (OVCAR-3 ovarian) was 0.000158 µM and < 0.087 µM, the TGI (P388 leukemia) was 0.581 µM and the GI50 (SW-620 colon) was 0.000425 µM. The GI50 (HOP-92 NSCLC) was 0.000425 µM, the GI50 (SK-OV-3 ovarian) was 79 pM and the TGI (NCI-H460 lung) was 0.00195 µM. The GI50 (SN12C renal) was 0.000425 µM, the TGI (SN12C renal) was 4.25 µM and > 14.7 µM and the GI50 (MDA-MB-231 breast) was 0.000147 µM. For the same compound, the TGI (MDA-MB-231 breast) was 0.000867 µM and < 0.048 µM, the GI50 (A549 NSCLC) was 0.000425 µM and the GI50 (HS 578T breast) was 69.5 pM. For the same compound, the TGI (HS 578T breast) was 4.06 µM, the TGI (HT29 colon) was 0.000849 µM and the GI50 (SK-MEL-2 melanoma) was < 0.0229 µM. The GI50 (IGROV1 ovarian) was 0.000425 µM, the GI50 (CCRF-CEM leukemia) was 0.000257 µM and 0.000425 µM and the GI50 (BT-549 breast) was 84.8 pM. The TGI (BT-549 breast) was > 100 µM, the TGI (U251 CNS) was 0.00143 µM and the TGI (MDA-MB-435) was 2.94 pM. The GI50 (OVCAR-8 ovarian) was 0.000425 µM, the GI50 (SK-MEL-28 melanoma) was 1.26 µM and the TGI (SK-MEL-28 melanoma) was > 100 µM. The GI50 (UACC-62 melanoma) was 0.000425 µM, the TGI (NCI-H23 lung) was 0.00554 µM and < 0.215 µM and the TGI (MCF7 breast) was > 100 µM. The TGI (ACHN renal) was > 100 µM, the GI50 (RPMI-8226 leukemia) was 0.000425 µM and the GI50 (NCI/ADR-RES ovarian) was 0.000317 µM. For the same compound, the TGI (NCI/ADR-RES ovarian) was < 0.215 µM, the TGI (T-47D breast) was > 100 µM and the TGI (DMS 114 small cell lung) was 0.00123 µM. The GI50 (OVCAR-5 ovarian) was < 0.0152 µM, the TGI (786-0 renal) was 44.1 µM and the GI50 (KM12 colon) was 0.000425 µM. For the same compound, the TGI (P388/ADR leukemia) was 0.000573 µM, the TGI (SF-539 CNS) was 0.00161 µM and the GI50 (UACC-257 melanoma) was 0.000425 µM and < 0.0589 µM. For the same compound, the GI50 (HCC-2998 colon) was 0.000425 µM, the TGI (HCC-2998 colon) was 0.00176 µM and 0.00234 µM and the GI50 (DU-145 prostate) was 14.8 pM. The TGI (DU-145 prostate) was 0.000106 µM, the TGI (SK-MEL-5 melanoma) was 0.000656 µM and the GI50 (SNB-75 CNS) was 0.000425 µM. The GI50 (TK-10 renal) was 0.31 µM, the TGI (TK-10 renal) was 98.3 µM and the TGI (KM20L2 colon) was 0.000234 µM. It also gave a TGI (RXF-631 renal) of 0.00731 µM, a TGI (HCT-15 colon) of 0.0054 µM and a GI50 (HL-60(TB) leukemia) of 0.000425 µM. For the same compound, the GI50 (M19-MEL melanoma) was 0.000425 µM, the GI50 (K-562 leukemia) was 0.000425 µM and the TGI (K-562 leukemia) was 2.86 µM and > 4.64 µM. For the same compound, the GI50 (NCI-H522 lung) was 65.7 pM, the TGI (NCI-H522 lung) was 0.000351 µM and the GI50 (OVCAR-4 ovarian) was 1.2 µM and 0.588 µM. The TGI (SNB-19 CNS) was 0.00744 µM.
